Data reported in patent US20240083857A1, “2-Methyl-Quinazolines” (Bayer Pharma Aktiengesellschaft, priority 2017, published 2024).
Structures can show the parent of a compound that is named as a salt.

Experiments:
[1] = target: K-Ras^G12C : hSOS1 interaction (Homo sapiens, UniProt Q07889); experiment: Biochemical assay 1: K-Ras^G12C interaction assay with hSOS1 (HTRF); type: binding; details: read-out: Assay 1 (KRAS-SOS Interaction) activity expressed as IC50
[2] = target: Epidermal Growth Factor Receptor (EGFR) (Homo sapiens (Human), UniProt P00533); experiment: EGFR kinase assay (TR-FRET); type: biochemical; details: values given in μM; read-out: EGFR kinase inhibition IC50
Epidermal Growth Factor Receptor (EGFR), sequence (P00533 25-1210): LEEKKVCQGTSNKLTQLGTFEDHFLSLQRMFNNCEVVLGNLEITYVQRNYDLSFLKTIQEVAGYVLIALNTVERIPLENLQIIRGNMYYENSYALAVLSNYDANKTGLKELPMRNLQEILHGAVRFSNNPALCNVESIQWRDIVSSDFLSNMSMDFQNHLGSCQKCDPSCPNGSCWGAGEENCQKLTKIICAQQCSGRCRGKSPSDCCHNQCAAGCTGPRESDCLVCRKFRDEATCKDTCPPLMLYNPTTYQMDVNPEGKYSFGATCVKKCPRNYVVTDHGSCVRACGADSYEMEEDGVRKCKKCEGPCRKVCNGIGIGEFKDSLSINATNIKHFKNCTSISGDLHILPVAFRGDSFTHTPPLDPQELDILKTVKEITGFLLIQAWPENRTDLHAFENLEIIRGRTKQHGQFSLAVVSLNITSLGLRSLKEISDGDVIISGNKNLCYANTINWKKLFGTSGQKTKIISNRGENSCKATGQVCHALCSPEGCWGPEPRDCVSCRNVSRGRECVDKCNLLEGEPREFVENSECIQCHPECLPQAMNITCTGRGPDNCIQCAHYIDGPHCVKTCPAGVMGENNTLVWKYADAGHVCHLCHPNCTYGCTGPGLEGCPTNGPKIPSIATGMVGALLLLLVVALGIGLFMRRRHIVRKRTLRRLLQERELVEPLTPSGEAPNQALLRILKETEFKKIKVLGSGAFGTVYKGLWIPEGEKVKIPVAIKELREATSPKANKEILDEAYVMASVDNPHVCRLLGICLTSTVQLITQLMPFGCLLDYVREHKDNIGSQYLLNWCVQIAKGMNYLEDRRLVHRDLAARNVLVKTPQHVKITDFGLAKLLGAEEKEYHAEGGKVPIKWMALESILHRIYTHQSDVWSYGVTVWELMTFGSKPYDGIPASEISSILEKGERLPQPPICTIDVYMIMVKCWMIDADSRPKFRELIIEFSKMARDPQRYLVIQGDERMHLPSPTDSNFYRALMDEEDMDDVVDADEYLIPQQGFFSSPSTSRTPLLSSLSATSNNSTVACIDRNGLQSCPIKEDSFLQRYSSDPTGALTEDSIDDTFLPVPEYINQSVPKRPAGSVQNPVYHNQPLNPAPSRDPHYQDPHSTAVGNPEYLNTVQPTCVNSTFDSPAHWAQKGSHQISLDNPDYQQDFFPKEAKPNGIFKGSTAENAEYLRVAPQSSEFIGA
How it was run: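 Read-out is the 665/620 nm HTRF ratio, from a Tb-cryptate anti-phosphotyrosine antibody and streptavidin-XL665 bound to phosphorylated biotin-peptide substrate. The enzyme, A431-derived EGFR (~3 U/ml), was given 15 min compound pre-binding at 22° C in Hepes pH 7.0 with Mg2+/Mn2+ before reaction.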

| SMILES | IC50 [1] | IC50 [2] |
| --- | --- | --- |
| COc1cc2nc(C)nc(NC(C)c3ccc(-c4cc(C)n(C)c4C#N)s3)c2cc1OC (stereo not shown) [Example 286, 3-(5-{1-[(6,7-dimethoxy-2-methylquinazolin-4-yl)amino]ethyl}thiophen-2-yl)-1,5-dimethyl-1H-pyrrole-2-carbonitrile] | 16700 nM | > 20 µM |
| COc1cc2nc(C)nc(NC(C)c3ccc(-c4cscc4C#N)s3)c2cc1OC (stereo not shown) [Example 287, 5-{1-[(6,7-dimethoxy-2-methylquinazolin-4-yl)amino]ethyl}-2,3′-bithiophene-4′-carbonitrile] | 5880 nM | > 20 µM |
| CCN(CC)Cc1ccccc1-c1ccc(C(C)Nc2nc(C)nc3cc(OC)c(OC)cc23)s1 (stereo not shown) [Example 288, N-[1-(5-{2-[(diethylamino)methyl]phenyl}thiophen-2-yl)ethyl]-6,7-dimethoxy-2-methylquinazolin-4-amine] | 170 nM | > 20 µM |
| COc1cc2nc(C)nc(NC(C)c3ccc(-c4ccccc4CN4CCCC(C(N)=O)C4)s3)c2cc1OC (stereo not shown) [Example 290, 1-[2-(5-{1-[(6,7-dimethoxy-2-methylquinazolin-4-yl)amino]ethyl}thiophen-2-yl)benzyl]piperidine-3-carboxamide] | 176 nM | > 20 µM |
| COc1cc2nc(C)nc(NC(C)c3ccc(-c4ccccc4CN(C)CC(F)F)s3)c2cc1OC (stereo not shown) [Example 291, N-{1-[5-(2-{[(2,2-difluoroethyl)(methyl)amino]methyl}phenyl)thiophen-2-yl]ethyl}-6,7-dimethoxy-2-methylquinazolin-4-amine] | 1120 nM | > 20 µM |
| COc1cc2nc(C)nc(NC(C)c3ccc(-c4cc(Cl)ccc4CN)s3)c2cc1OC (stereo not shown) [Example 292, N-[1-{5-[2-(aminomethyl)-5-chlorophenyl]thiophen-2-yl}ethyl]-6,7-dimethoxy-2-methylquinazolin-4-amine] | 31.5 nM | > 20 µM |
| COc1cc2nc(C)nc(NC(C)c3ccc(-c4ccc(F)cc4CNC(=O)c4ncc[nH]4)s3)c2cc1OC (stereo not shown) [Example 293, N-[2-(5-{1-[(6,7-dimethoxy-2-methylquinazolin-4-yl)amino]ethyl}thiophen-2-yl)-5-fluorobenzyl]-1H-imidazole-2-carboxamide] | 2750 nM | > 20 µM |
| COc1cc2nc(C)nc(NC(C)c3ccc(-c4ccc(F)cc4CNC(=O)c4cnc[nH]4)s3)c2cc1OC (stereo not shown) [Example 294, N-[2-(5-{1-[(6,7-dimethoxy-2-methylquinazolin-4-yl)amino]ethyl}thiophen-2-yl)-5-fluorobenzyl]-1H-imidazole-5-carboxamide] | 3100 nM | > 20 µM |
| COc1cc2nc(C)nc(NC(C)c3ccc(-c4ccc(F)cc4CNC(=O)CNCC(F)(F)F)s3)c2cc1OC (stereo not shown) [Example 295, N-[2-(5-{1-[(6,7-dimethoxy-2-methylquinazolin-4-yl)amino]ethyl}thiophen-2-yl)-5-fluorobenzyl]-N^2-(2,2,2-trifluoroethyl)glycinamide] | 980 nM | > 20 µM |
| COc1cc2nc(C)nc(NC(C)c3ccc(-c4ccccc4CNCCO)s3)c2cc1OC (stereo not shown) [Example 297, 2-{[2-(5-{1-[(6,7-dimethoxy-2-methylquinazolin-4-yl)amino]ethyl}thiophen-2-yl)benzyl]amino}ethanol] | 46 nM | > 20 µM |
| COc1cc2nc(C)nc(NC(C)c3ccc(-c4ccccc4CN(C)CCO)s3)c2cc1OC (stereo not shown) [Example 298, 2-{[2-(5-{1-[(6,7-dimethoxy-2-methylquinazolin-4-yl)amino]ethyl}thiophen-2-yl)benzyl](methyl)amino}ethanol] | 47.2 nM | > 20 µM |
| COc1cc2nc(C)nc(NC(C)c3ccc(-c4ccc(F)cc4CNC(=O)CNc4ccccc4)s3)c2cc1OC (stereo not shown) [Example 299, N-[2-(5-{1-[(6,7-dimethoxy-2-methylquinazolin-4-yl)amino]ethyl}thiophen-2-yl)-5-fluorobenzyl]-N^2-phenylglycinamide] | 948 nM | > 20 µM |
| COc1cc2nc(C)nc(NC(C)c3ccc(-c4ccccc4CNCC(F)(F)F)s3)c2cc1OC (stereo not shown) [Example 300, 6,7-di methoxy-2-methyl-N-{1-[5-(2-{[(2,2,2-trifluoroethyl)amino]methyl}phenyl)thiophen-2-yl]ethyl}quinazolin-4-amine] | 3150 nM | > 20 µM |
| COc1cc2nc(C)nc(NC(C)c3ccc(-c4ccccc4CNc4ccccn4)s3)c2cc1OC (stereo not shown) [Example 301, 6,7-di methoxy-2-methyl-N-[1-(5-{2-[(pyridin-2-ylamino)methyl]phenyl}thiophen-2-yl)ethyl]quinazolin-4-amine] | 799 nM | > 20 µM |
| COc1cc2nc(C)nc(NC(C)c3ccc(-c4ccccc4CNc4cc[nH]n4)s3)c2cc1OC (stereo not shown) [Example 302, 6,7-dimethoxy-2-methyl-N-[1-(5-{2-[(1H-pyrazol-3-ylamino)methyl]phenyl}thiophen-2-yl)ethyl]quinazolin-4-amine] | 787 nM | > 20 µM |
| COc1cc2nc(C)nc(NC(C)c3ccc(-c4ccccc4CNCC(=O)N4CCc5ccccc5C4)s3)c2cc1OC (stereo not shown) [Example 303, 1-(3,4-dihydroisoquinolin-2(1H)-yl)-2-{[2-(5-{1-[(6,7-dimethoxy-2-methylquinazolin-4-yl)amino]ethyl}thiophen-2-yl)benzyl]amino}ethanone] | 724 nM | > 20 µM |
| COc1cc2nc(C)nc(NC(C)c3ccc(-c4ccc(F)cc4CNCc4nccn4C)s3)c2cc1OC (stereo not shown) [Example 304, N-[1-{5-[4-fluoro-2-({[(1-methyl-1H-imidazol-2-yl)methyl]amino}methyl)phenyl]thiophen-2-yl}ethyl]-6,7-dimethoxy-2-methylquinazolin-4-amine] | 417 nM | > 20 µM |
| COc1cc2nc(C)nc(NC(C)c3ccc(-c4ccccc4CN4CCNCC4)s3)c2cc1OC (stereo not shown) [Example 305, 6,7-dimethoxy-2-methyl-N-[1-{5-[2-(piperazin-1-ylmethyl)phenyl]thiophen-2-yl}ethyl]quinazolin-4-amine hydrochloride] | 61.6 nM | > 20 µM |
| COc1cc2nc(C)nc(NC(C)c3ccc(-c4ccc(F)cc4CNC(C)=O)s3)c2cc1OC (stereo not shown) [Example 307, N-[2-(5-{1-[(6,7-dimethoxy-2-methylquinazolin-4-yl)amino]ethyl}thiophen-2-yl)-5-fluorobenzyl]acetamide] | 589 nM | > 20 µM |
| COc1cc2nc(C)nc(NC(C)c3ccc(-c4ccccc4CN4CCN(C)CC4)s3)c2cc1OC (stereo not shown) [Example 308, 6,7-dimethoxy-2-methyl-N-[1-(5-{2-[(4-methylpiperazin-1-yl)methyl]phenyl}thiophen-2-yl)ethyl]quinazolin-4-amine] | 260 nM | > 20 µM |
| COc1cc2nc(C)nc(NC(C)c3ccc(-c4ccccc4CN[C@H]4CCN(C)C4=O)s3)c2cc1OC (stereo partly drawn) [Example 309, (3S)-{[2-(5-{1-[(6,7-dimethoxy-2-methylquinazolin-4-yl)amino]ethyl}thiophen-2-yl)benzyl]amino}-1-methylpyrrolidin-2-one] | 1320 nM | > 20 µM |
| COc1cc2nc(C)nc(NC(C)c3ccc(-c4ccc(F)cc4CNC(=O)c4cc[nH]n4)s3)c2cc1OC (stereo not shown) [Example 310, N-[2-(5-{1-[(6,7-dimethoxy-2-methylquinazolin-4-yl)amino]ethyl}thiophen-2-yl)-5-fluorobenzyl]-1H-pyrazole-3-carboxamide] | 5820 nM | > 20 µM |
| COc1cc2nc(C)nc(NC(C)c3ccc(-c4ccccc4CN4CCOCC4)s3)c2cc1OC (stereo not shown) [Example 311, 6,7-dimethoxy-2-methyl-N-[1-{5-[2-(morpholin-4-ylmethyl)phenyl]thiophen-2-yl}ethyl]quinazolin-4-amine] | 763 nM | > 20 µM |
| COc1cc2nc(C)nc(NC(C)c3ccc(-c4ccccc4CN4CC(O)C4)s3)c2cc1OC (stereo not shown) [Example 312, 1-[2-(5-{1-[(6,7-dimethoxy-2-methylquinazolin-4-yl)amino]ethyl}thiophen-2-yl)benzyl]azetidin-3-ol] | 68.2 nM | > 20 µM |
| COc1cc2nc(C)nc(NC(C)c3ccc(-c4ccccc4CN4CC5(CNC(=O)N5)C4)s3)c2cc1OC (stereo not shown) [Example 313, 2-[2-(5-{1-[(6,7-dimethoxy-2-methylquinazolin-4-yl)amino]ethyl}thiophen-2-yl)benzyl]-2,5,7-triazaspiro[3.4]octan-6-one] | 167 nM | > 20 µM |
| COc1cc2nc(C)nc(NC(C)c3ccc(-c4ccc(F)cc4CNC(=O)[C@@H]4CCCN4)s3)c2cc1OC (stereo partly drawn) [Example 314, N-[2-(5-{1-[(6,7-dimethoxy-2-methylquinazolin-4-yl)amino]ethyl}thiophen-2-yl)-5-fluorobenzyl]-L-prolinamide] | 104 nM | > 20 µM |
| COc1cc2nc(C)nc(NC(C)c3ccc(-c4ccccc4CNCC(F)F)s3)c2cc1OC (stereo not shown) [Example 315, N-{1-[5-(2-{[(2,2-difluoroethyl)amino]methyl}phenyl)thiophen-2-yl]ethyl}-6,7-dimethoxy-2-methylquinazolin-4-amine] | 777 nM | > 20 µM |
| COc1cc2nc(C)nc(NC(C)c3ccc(-c4ccccc4CN4CCC4)s3)c2cc1OC (stereo not shown) [Example 317, N-[1-{5-[2-(azetidin-1-ylmethyl)phenyl]thiophen-2-yl}ethyl]-6,7-dimethoxy-2-methylquinazolin-4-amine] | 76 nM | > 20 µM |
| COc1cc2nc(C)nc(NC(C)c3ccc(-c4ccccc4CN4CC[C@H]4CO)s3)c2cc1OC (stereo partly drawn) [Example 318, {1-[(2S)-(5-{1-[(6,7-dimethoxy-2-methylquinazolin-4-yl)amino]ethyl}thiophen-2-yl)benzyl]azetidin-2-yl}methanol] | 171 nM | > 20 µM |
